Results taken from US8642646B2, “Method and composition for treating acne using lignan compounds” (New Tree Industry Co., Ltd., priority 2004, dated 2014).
Values after ≈ are worked out from the molar mass of the structure shown.

How the values were obtained:
Propionibacterium acnes [1] = settings: literature values; cited from earlier work
Propionibacterium acnes [2] = test: Minimum inhibitory concentration (MIC), broth serial dilution; format: cell-based; settings: Cutibacterium acnes; BHI broth, 37° C., at least 24 hours; read-out: Minimum inhibitory concentration against Propionibacterium acnes
Description: (§1) The macelignan compound prepared in Example <1-1> was dissolved in 0.5% methanol, and 1 ml of BHI (Brain Heart Infusion) broth was placed into each of test tubes. 1 ml of 2% macelignan solution was placed only into the first test tube and serially diluted 2-fold. Then, 100 μl of Propionibacterium acnes were added at 2×10^5 CFU/ml to each test tube and cultured at 37° C. for at least 24 hours. […] Using the same method, the minimum inhibitory concentrations against Staphylococcus aureus and Staphylococcus epidermis were also measured and the results are shown in Table 2.

Staphylococcus epidermis = test: as above; format: cell-based; settings: same method, read-out: Minimum inhibitory concentration against Staphylococcus epidermis
Description: as §1

Staphylococcus aureus = test: as above; format: cell-based; settings: same method, read-out: Minimum inhibitory concentration against Staphylococcus aureus
Description: as §1

acne patients = test: Clinical test on acne patients, oral administration; format: in vivo, human
Description: The macelignan isolated and purified in Example <1-1> was clinically tested for acne treatment. • 30 men and women in their mid-30s, who suffer from acne, were selected as test subjects. The macelignan was administered to the test subjects at 600 mg two times a day for 4 weeks.

acne-causing bacteria = test: Thermal stability: antibacterial activity by well diffusion assay after thermal treatment; format: cell-based; settings: for Diameter of clear zone on the plate containing macelignan: 0.1% in dimethylsulfoxide
Description: The macelignan compound prepared in Example <1-1> was dissolved in dimethylsulfoxide to a concentration of 0.1%. The sample was thermally treated for 30 minutes at different temperatures of 60° C., 70° C., 80° C., 90° C., 100° C., and 121° C. and measured for antibacterial activity by the well diffusion assay.

Propionibacterium acnes [3] = test: Growth inhibition of Propionibacterium acnes by viable cell counting; format: cell-based; settings: 37° C.
Description: The macelignan compound prepared in Example <1-1> was dissolved in dimethylsulfoxide to concentrations of 0.002%, 0.001% and 0.0005%, respectively. 100 μl of Propionibacterium acnes diluted to 2×10^5 CFU/ml was added to test tubes containing the macelignan solutions and allowed to react at 37° C. for 2 hr, 4 hr, 8 hr, 12 hr, 16 hr, 20 hr, and 24 hr. Each sample was serially diluted 10-fold and subjected to the pour plate method. The plates were cultured in an incubator at 37° C. and measured for viable cell colonies of Propionibacterium acnes.

[4] = oral 600 mg two times a day, 4 weeks

O=C(OOC(=O)c1ccccc1)c1ccccc1 [benzoyl peroxide]
MIC against Propionibacterium acnes (Propionibacterium acnes [1]): 500 to 1000 µg/mL

COc1cc(C[C@H](C)[C@H](C)Cc2ccc3c(c2)OCO3)ccc1O [macelignan]
MIC (Propionibacterium acnes [2]): 2 µg/mL (≈ 6.09 µM)
MIC (Staphylococcus epidermis): 64 µg/mL (≈ 195 µM)
MIC (Staphylococcus aureus): 125 µg/mL (≈ 381 µM)
Comedos, mean number after 4 weeks of administration (acne patients; [4]): 7.94
Nodules, mean number after 4 weeks of administration (acne patients; [4]): 0.24
Papules, mean number after 4 weeks of administration (acne patients; [4]): 5.69
Pustules, mean number after 4 weeks of administration (acne patients; [4]): 2.30
number of lesions after 4 weeks compared to before administration (acne patients; oral 600 mg two times a day, 4 weeks, p-value<0.05): remarkably reduced
Comedos, mean number before administration (acne patients; oral, before administration): 18.92
Nodules, mean number before administration (acne patients; oral, before administration): 0.74
Papules, mean number before administration (acne patients; oral, before administration): 14.47
Pustules, mean number before administration (acne patients; oral, before administration): 5.92
Diameter of clear zone on the plate containing macelignan (acne-causing bacteria; treated 30 minutes at 60° C.): 17 mm
Diameter of clear zone on the plate containing macelignan (acne-causing bacteria; treated 30 minutes at 70° C.): 16 mm
Diameter of clear zone on the plate containing macelignan (acne-causing bacteria; treated 30 minutes at 80° C.): 17 mm
Diameter of clear zone on the plate containing macelignan (acne-causing bacteria; treated 30 minutes at 90° C.): 17 mm
Diameter of clear zone on the plate containing macelignan (acne-causing bacteria; treated 30 minutes at 100° C.): 18 mm
Diameter of clear zone on the plate containing macelignan (acne-causing bacteria; treated 30 minutes at 121° C.): 17 mm
thermal stability (change of antibacterial activity after thermal treatment) (acne-causing bacteria; thermal treatment at 60° C.-121° C.): little or no reduction in antibacterial activity
time within which the bacteria were almost dead (Propionibacterium acnes [3]; macelignan 0.001% (10 μg/ml)): ≤ 8 h
time within which the bacteria were almost dead (Propionibacterium acnes [3]; macelignan 0.002% (20 μg/ml)): ≤ 2 h

CC1=CCC(O)(C(C)C)CC1 (stereo not drawn) [terpinen-4-ol]
MIC against Propionibacterium acnes (Propionibacterium acnes [1]): 300 to 500 µg/mL

benzalkonium chloride
MIC against Propionibacterium acnes (Propionibacterium acnes [1]): 200˜300 μg/ml
